How the values were obtained:
[1] = molecular target: T1, SMARCA4-HiBiT HeLa cells (protein which is expressed from the SMARCA4 gene) (Homo sapiens, UniProt P51532); assay: SMARCA4 degradation assay (HiBiT-fusion HeLa cell line, 24 h, luminescence); type: cell-based
T1 construct: protein which is expressed from the SMARCA2 and SMARCA4 genes; host or cells: HeLa (SMARCA4-HiBiT engineered line)
How it was run: (§1)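 HiBiT-fusion HeLa lines, 8,000 cells/well, overnight attachment; cpd 10-pt series (typically 10 μM–300 pM), 24 h, 37° C. Lysis with LgBiT + HiBiT substrate, 10 min shaking at RT, luminescence read. DC50 from dose-response fit; % degradation also scored at 1 μM.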

[2] = molecular target: T2, SMARCA2-HiBiT HeLa cells (protein which is expressed from the SMARCA2 gene) (Homo sapiens, UniProt P51531); assay: SMARCA2 degradation assay (HiBiT-fusion HeLa cell line, 24 h, luminescence); type: cell-based
T2 construct: protein which is expressed from the SMARCA2 and SMARCA4 genes; host or cells: HeLa (SMARCA2-HiBiT engineered line)
T2 sequence (P51531 whole entry, the tested form may be a part): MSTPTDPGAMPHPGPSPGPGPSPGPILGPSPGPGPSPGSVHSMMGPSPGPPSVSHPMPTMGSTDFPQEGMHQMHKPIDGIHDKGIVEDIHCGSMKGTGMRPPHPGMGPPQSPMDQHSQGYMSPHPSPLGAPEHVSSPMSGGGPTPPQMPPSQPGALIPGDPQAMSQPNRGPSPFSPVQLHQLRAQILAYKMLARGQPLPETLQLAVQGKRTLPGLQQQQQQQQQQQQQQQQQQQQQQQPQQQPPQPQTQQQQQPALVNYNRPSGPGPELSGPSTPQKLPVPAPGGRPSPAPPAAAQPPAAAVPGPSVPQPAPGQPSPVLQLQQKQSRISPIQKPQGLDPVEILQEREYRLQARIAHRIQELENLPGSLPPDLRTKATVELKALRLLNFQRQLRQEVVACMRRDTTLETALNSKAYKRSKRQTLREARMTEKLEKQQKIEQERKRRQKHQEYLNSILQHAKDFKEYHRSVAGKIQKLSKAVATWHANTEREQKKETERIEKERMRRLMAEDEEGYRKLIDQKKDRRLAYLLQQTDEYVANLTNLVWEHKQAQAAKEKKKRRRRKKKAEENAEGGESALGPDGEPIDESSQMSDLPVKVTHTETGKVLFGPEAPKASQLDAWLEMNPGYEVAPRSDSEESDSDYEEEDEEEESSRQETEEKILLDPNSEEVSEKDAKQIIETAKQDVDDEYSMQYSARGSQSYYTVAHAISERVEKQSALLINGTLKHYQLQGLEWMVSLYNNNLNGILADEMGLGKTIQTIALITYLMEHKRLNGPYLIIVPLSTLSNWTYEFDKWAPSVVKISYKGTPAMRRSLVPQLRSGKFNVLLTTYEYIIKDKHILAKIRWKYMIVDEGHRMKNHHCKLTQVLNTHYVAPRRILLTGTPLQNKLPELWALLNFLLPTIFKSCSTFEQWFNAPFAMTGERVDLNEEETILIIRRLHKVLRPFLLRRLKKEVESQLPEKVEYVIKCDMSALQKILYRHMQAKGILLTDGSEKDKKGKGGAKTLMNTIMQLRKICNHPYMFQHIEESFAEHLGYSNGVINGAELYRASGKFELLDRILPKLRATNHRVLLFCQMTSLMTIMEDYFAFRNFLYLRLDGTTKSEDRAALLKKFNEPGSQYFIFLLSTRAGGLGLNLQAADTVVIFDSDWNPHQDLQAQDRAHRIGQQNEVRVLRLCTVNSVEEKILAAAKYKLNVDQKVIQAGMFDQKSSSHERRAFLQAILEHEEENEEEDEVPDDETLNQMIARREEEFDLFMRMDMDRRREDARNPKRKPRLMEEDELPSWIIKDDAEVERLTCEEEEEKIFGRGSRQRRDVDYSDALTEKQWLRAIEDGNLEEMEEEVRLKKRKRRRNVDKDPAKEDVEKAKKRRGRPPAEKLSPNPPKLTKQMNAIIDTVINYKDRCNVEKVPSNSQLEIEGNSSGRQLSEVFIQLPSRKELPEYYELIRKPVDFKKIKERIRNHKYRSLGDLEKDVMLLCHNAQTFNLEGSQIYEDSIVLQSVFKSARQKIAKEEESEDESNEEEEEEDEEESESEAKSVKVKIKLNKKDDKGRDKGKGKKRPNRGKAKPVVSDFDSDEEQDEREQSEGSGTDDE
How it was run: as §1

T1 sequence (P51532 whole entry, the tested form may be a part): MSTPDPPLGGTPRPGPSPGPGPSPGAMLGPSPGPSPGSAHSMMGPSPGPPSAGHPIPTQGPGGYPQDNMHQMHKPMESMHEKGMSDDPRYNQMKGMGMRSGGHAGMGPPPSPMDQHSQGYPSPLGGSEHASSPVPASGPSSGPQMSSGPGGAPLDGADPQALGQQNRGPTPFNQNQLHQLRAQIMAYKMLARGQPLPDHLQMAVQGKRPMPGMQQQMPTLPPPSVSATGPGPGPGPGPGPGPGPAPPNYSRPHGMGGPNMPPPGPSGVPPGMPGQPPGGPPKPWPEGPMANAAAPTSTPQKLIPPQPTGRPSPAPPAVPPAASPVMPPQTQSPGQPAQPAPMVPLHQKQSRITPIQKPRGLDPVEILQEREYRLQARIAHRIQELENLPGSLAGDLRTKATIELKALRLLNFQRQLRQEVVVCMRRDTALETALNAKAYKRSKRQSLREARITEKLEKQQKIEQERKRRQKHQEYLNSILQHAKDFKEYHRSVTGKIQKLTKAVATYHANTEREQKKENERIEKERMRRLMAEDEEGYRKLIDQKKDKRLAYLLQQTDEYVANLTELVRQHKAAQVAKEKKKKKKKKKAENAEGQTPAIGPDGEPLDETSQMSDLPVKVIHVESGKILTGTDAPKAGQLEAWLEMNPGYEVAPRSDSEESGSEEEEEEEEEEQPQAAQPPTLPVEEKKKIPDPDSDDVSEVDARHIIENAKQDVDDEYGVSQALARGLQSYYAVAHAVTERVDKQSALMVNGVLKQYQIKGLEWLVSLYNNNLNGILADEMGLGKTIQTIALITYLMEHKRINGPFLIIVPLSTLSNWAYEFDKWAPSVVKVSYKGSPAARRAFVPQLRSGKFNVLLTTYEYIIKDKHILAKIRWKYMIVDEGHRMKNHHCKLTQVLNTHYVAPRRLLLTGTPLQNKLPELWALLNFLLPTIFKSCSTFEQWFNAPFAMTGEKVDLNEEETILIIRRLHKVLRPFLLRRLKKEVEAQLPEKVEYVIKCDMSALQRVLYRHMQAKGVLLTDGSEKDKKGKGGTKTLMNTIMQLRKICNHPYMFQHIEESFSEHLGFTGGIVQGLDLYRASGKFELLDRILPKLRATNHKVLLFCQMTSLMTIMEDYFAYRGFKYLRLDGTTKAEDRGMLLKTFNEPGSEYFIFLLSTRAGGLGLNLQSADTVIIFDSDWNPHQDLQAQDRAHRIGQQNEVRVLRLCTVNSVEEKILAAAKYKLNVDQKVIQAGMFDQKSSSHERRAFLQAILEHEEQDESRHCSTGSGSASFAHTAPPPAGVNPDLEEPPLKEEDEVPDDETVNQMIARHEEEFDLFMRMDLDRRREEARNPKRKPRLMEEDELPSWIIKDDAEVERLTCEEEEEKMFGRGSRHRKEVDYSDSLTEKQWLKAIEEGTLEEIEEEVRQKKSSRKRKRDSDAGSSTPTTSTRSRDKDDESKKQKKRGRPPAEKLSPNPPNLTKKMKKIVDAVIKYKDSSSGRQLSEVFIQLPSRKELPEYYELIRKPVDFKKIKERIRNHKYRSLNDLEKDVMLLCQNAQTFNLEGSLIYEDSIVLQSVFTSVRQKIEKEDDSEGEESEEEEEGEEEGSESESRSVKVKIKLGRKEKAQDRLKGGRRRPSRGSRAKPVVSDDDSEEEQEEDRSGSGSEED

Structure (SMILES): C[C@@H]1CCN(c2cc(-c3ccccc3O)nnc2N)CCN1c1ccnc(C#CC2CCCCN2C)n1 (stereo partly drawn) [Compound P-231, o-{5-[(R)-5-methyl-4-{2-[2-(1-methyl-2-piperidyl)ethynyl]-4-pyrimidinyl}-1,4-diazepan-1-yl]-6-amino-3-pyridaziny1} phenol]
- DC50 [1]: < 50 nM
- inhibition at 1 µM ([1]; @ 1 μM): 30 to 70%
- DC50 [2]: < 50 nM
- SMARCA2 % Degradation @ 1 μM ([2]; @ 1 μM): ++ (++=30-70%)
